The test system of assay [1] is human skin explants. Kind of assay: UV-induced 8-nitroguanine (8NGO) in human skin explants (immunohistochemistry). The format is cell-based. The settings on record: either protocol. The source says:
FIG. 6. (A) Representative images of immunohistochemical staining of 8NGO in human explants from isotype control and sham exposed explants. (B) Representative images of immunohistochemical staining of 8NGO in human skin explants from UV-exposed explants. (C-D) Analysis of 8NGO in epidermis (C) and dermis (D) of skin explants. Bars indicate significant differences **** p<0.001; NS=not significant between data sets (n=3 explants per data point).
(§1) Exposure of skin to UV radiation induces oxidative stress via a dramatic increase in ROS (see, Dunaway et al., 2018). In this section of the research work we measured oxidative DNA damage caused by UV-induced cyclobutene pyrimidine dimers (CPD), oxidative DNA damage resulting from UV-induced 8-oxo-guanine (8-oxoG), and nitrosative DNA damage caused by 8-nitroguanine (8NG) (Mason et al., 2013). Typically, if these DNA lesions are not adequately repaired, they lead to mutations which may then lead to the development of skin tumours (Mason et al., 2013). Our primary objective here was to determine if RM191A, when applied topically to ex vivo human skin, reduced UV-induced DNA damage.
(§2) The same treatment protocols were also followed for a placebo gel which contained no RM191A. […]

Assay [2] relates to human skin explants. Briefly: UV-induced CPD in human skin explants (immunohistochemistry). The settings on record: epidermis; treatment of UV-exposed explants (post-treatment, RM191A Gel 2); vs UV-exposed controls. The format is cell-based.
From the text: FIG. 4: RM191A protects against UV-induced oxidative stress. (A) Representative images of immunohistochemical staining of CPDs in human explants from isotype control and sham exposed explants. There was little staining in the isotype control. […] (B) Representative images of immunohistochemical staining of CPDs in human skin explants from UV-exposed explants. (C) Analysis of CPD in epidermis of skin explants. Bars indicate significant differences **** p<0.001; NS=not significant between data sets (n=3 explants per data point).
as §1, §2

Assay [3] concerns human skin explants. Briefly: UV-induced 8-oxoG in human skin explants (immunohistochemistry). The assay is classed as cell-based. The settings on record: epidermis; treatment of UV-exposed explants (post-treatment, RM191A Gel 2); vs UV-exposed controls.
From the text: FIG. 5. (A) Representative images of immunohistochemical staining of 8-oxoG in human explants from isotype control and sham exposed explants. (B) Representative images of immunohistochemical staining of 8-oxoG in human skin explants from UV-exposed explants. (C-D) Analysis of 8-oxoG in (C) epidermis and (D) dermis of skin explants. Bars indicate significant differences **** p<0.001; NS=not significant between data sets (n=3 explants per data point).
as §1, §2

Assay [4] can be described thus: NBT superoxide scavenging (SOD-like activity) assay. The settings on record: for Absorbance 560 nm Ave: SOD primary data. The format is biochemical. The source says:
The purpose of these experiments was to measure the Superoxide Dismutase-like (SOD-like) activity of the copper ion complex (RM191A) depicted in the Examples below as “Cu”. The inventors employed a modified version of the method described by Beauchamp and Fridovich (see, Beauchamp et al. 1971). The reason for this modification was to create a reaction mixture that successfully generates known quantities of the O2^− free radical but does so at a pH at which the copper ion complex is stable—specifically in the range pH 6.5-7.8.
Because of the instability of its substrate, all available chemical assays of SOD and SOD-like activity are necessarily indirect and depend upon its ability to scavenge O2^− from reaction mixtures and thus to inhibit reactions caused by O2^−.
NitroBlue Tetrazolium (NBT) was selected as an indicator to measure and compare the superoxide scavenging activities of both bovine SOD and the copper ion complex (“RM191A,” the preparation of which is described in detail in International PCT Patent Publication No. WO/AU2016/201524), This assay utilizes photochemical events to generate O2^− in a sodium tetraborate buffered solution of acetone and isopropanol which is then irradiated by high energy UV light at 254 nm (Mercury Vapour Lamp) to create O2^− in the solution.
SOD and SOD-like substances inhibit the formation of the blue formazan by neutralising the superoxide free radicals as they are forming. Blue formazan has a characteristic UV absorbance at 560 nm. The quantitation of the UV absorbance of the reaction solution at 560 nm is a direct measure the SOD and SOD-like activity of a substance.
UV absorbances of the reaction solutions were measured at 560 nm following irradiation with UV light to determine the superoxide free radical scavenging activity in situ of both bovine SOD and the copper ion complex (RM191A).
Each reaction solution consists of 0.5 ml of 200 μmol/L NBT in borate buffer (pH=7.1) and 0.5 ml of a 200 μmol/L solution of the test compound in 5.0 mL of 5 mol/L isopropanol.
To each reaction vessel 15 mg acetone (20 μL) as added to begin the reaction. Each vessel was then irradiated with UV light at 254 nm (mercury vapour lamp) for 1 minute.
The reaction solution was then transferred into UV Vis cells and the absorbance at 560 nm was measured.
A number of test solution concentrations were assayed by adding, 1.0, 1.25, 1.5, 1.75, 2.0 mL of a 200 μmol/L solution of the test compound and bringing the total volume to 5.0 mL with 5 mol/L isopropanol.
The method uses a Cu control to remove the minor background copper absorbance.

Consider `C=C1/C(=C\C=C2/CCC[C@]3(C)[C@@H]([C@H](C)CCCC(C)(C)O)CC[C@@H]23)C[C@@H](O)C[C@@H]1O` [1,25D, 1,25-dihydroxy vitamin D3], for which the “8NGO vs UV-exposed controls” value in the assay with human skin explants [1] is “significantly decreased”. Besides, the “decrease in CPD” value with human skin explants [2] came to 30%. Further, in the assay on human skin explants [3], the “decrease in nuclear 8-oxoG” value amounted to 27%.

Consider “SOD: bovine superoxide dismutase used as comparator”, for which the “Absorbance (Table 5)” value is listed as 0.2988 in assay [4] (1.6 μM), 0.2879 in assay [4] (20 μM), 0.2348 in assay [4] (40 μM) and 0.332 in assay [4] (80 μM). Further, the “Absorbance 560 nm Ave” value in assay [4] (Molarity 0.0000016) was 0.2988; in assay [4] (Molarity 0.00002) it was 0.2879; in assay [4] (Molarity 0.00004), 0.2348; in assay [4] (Molarity 0.00008) it was 0.332; in assay [4] (Molarity 0.0001) it was 0.3163; in assay [4] (Molarity 0.00012), 0.3215. In addition, the “Absorbance 560 nm Ave” value in assay [4] (Molarity 0.00014) came out at 0.3555.

For the origin of these results see US12472207B2, “Anti-inflammatory compositions and methods” (RR Medsciences Pty Ltd., priority 2019, dated 2025).
